Structures can show the parent of a compound that is named as a salt.
Key:
[1] = system: late components of human complement (C3-C9); test: Test Code 035 (C3-C9 inhibitor), lysis of EAC 142; type: biochemical; conditions: serial twofold dilution assay; higher well number indicates higher activity
Text: (§1) An active inhibitor protects C2 from C1 and C4; (ii) Test Code 035 (C3-C9 inhibitor)--This test determines the ability of the late components of human complement (C3-C9) to lyse EAC 142 in the presence of appropriate dilutions of the test compound. An active inhibitor protects EAC 142 from lysis by human C3-C9; (iii) Test Code 036 (C-Shunt inhibitor)--In this test human erythrocytes rendered fragile are lysed in autologous serum via the shunt pathway activated by cobra venom factor in the presence of appropriate dilutions of the test compound. Inhibition of the shunt pathway results in failure of lysis; (iv) Forssman Vasculitis Test--Here, the well known complement dependent lesion, Forssman vasculitis, is produced in guinea pigs by intradermal injection of rabbit anti-Forssman antiserum. The lesion is measured in terms of diameter, edema and hemorrhage and the extent to which a combined index of these is inhibited by prior intraperitoneal injection of the test compound at 200 mg/kg is then reported, unless otherwise stated; (v) Forssman Shock Test--Lethal shock is produced in guinea pigs by an i.v. injection of anti-Forssman antiserum and the harmonic mean death time of treated guinea pigs is compared with that of simultaneous controls; (vi) Complement Level Reduction Test--In this test, the above dosed guinea pigs, or others, are bled for serum and the complement level is determined in undiluted serum by the capillary tube method of U.S. Pat. No. 3,876,376 and compared to undosed control guinea pigs; and (vii) Cap 50 Test--Here, appropriate amounts of the test compound are added to a pool of guinea pig serum in vitro, after which the undiluted serum capillary tube assay referred to above is run. The concentration of compound inhibiting 50% is reported.

[2] = target: T1, activated human C1 (Homo sapiens, UniProt P09871); test: Test Code 026 (C1-inhibitor); type: biochemical; conditions: serial twofold dilution assay; higher well number indicates higher activity
T1 construct: cleavage of fluid-phase human C2 in presence of C4
Text: as §1

[3] = system: shunt pathway activated by cobra venom factor; test: Test Code 036 (C-Shunt inhibitor), lysis of human erythrocytes in autologous serum, cobra venom factor; type: cell-based; conditions: serial twofold dilution assay; higher well number indicates higher activity
Text: as §1

[4] = system: complement system; conditions: known from the literature; cited from earlier work

T1 sequence (P09871 16-688): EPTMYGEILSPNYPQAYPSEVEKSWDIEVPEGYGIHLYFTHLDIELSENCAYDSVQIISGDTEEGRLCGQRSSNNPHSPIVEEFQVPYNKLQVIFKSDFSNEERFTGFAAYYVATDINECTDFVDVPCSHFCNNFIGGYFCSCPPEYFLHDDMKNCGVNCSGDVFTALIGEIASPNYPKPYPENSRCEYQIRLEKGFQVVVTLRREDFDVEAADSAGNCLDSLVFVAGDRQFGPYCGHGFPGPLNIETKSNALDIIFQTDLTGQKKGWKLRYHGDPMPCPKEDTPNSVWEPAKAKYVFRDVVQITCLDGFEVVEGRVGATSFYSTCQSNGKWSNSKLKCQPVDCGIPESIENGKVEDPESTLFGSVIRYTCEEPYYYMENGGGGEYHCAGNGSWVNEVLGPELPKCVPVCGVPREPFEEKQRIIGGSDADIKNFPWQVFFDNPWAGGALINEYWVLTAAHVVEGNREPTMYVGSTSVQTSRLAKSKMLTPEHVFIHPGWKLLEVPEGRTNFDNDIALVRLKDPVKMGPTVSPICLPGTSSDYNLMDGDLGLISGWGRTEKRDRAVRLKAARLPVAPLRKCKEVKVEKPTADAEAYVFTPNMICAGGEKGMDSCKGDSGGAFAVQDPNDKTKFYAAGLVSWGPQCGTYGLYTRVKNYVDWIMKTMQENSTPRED
T1 sequence (P00736 18-705 partner): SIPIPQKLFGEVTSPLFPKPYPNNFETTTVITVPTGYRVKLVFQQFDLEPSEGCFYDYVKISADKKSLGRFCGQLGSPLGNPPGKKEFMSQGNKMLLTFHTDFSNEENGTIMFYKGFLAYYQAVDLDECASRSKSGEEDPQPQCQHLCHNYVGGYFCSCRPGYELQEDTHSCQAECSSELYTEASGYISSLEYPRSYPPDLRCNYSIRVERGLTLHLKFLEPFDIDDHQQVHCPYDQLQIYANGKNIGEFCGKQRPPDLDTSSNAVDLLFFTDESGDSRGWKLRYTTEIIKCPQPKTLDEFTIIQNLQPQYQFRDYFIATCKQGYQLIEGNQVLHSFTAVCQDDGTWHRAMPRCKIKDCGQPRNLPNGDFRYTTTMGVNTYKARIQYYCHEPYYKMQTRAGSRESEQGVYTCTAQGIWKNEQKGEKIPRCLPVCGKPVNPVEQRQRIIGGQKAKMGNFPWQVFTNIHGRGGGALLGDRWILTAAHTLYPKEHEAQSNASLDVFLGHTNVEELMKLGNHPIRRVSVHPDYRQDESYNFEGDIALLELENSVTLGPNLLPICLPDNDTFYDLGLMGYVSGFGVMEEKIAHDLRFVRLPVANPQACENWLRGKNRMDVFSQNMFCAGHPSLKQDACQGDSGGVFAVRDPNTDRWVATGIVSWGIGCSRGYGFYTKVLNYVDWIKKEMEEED
T1 sequence (P02745 23-245 partner): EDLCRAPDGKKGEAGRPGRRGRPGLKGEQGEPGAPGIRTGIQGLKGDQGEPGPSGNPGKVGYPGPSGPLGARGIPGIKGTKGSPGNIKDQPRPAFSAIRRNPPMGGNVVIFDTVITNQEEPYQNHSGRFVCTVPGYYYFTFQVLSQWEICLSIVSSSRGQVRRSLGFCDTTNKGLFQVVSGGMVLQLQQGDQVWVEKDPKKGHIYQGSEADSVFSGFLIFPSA
T1 sequence (P02746 28-253 partner): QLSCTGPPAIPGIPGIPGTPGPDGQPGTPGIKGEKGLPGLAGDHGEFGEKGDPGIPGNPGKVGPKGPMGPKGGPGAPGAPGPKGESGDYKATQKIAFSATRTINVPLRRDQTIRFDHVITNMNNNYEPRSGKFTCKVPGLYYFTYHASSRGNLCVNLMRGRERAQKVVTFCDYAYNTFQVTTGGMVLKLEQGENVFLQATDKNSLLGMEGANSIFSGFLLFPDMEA
T1 sequence (P02747 29-245 partner): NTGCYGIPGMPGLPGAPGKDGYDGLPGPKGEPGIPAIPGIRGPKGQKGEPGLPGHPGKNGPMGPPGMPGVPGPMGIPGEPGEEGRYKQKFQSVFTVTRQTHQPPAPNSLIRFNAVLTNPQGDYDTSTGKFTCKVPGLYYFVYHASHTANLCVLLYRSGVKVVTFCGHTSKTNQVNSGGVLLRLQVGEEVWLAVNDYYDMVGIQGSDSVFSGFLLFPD

| Structure (SMILES) | C-Late 035* Wells [1] | Cl 026* Wells [2] | Shunt Inhibition 036* Wells [3] | activity as a complement inhibitor [4] |
| --- | --- | --- | --- | --- |
| Cc1ccc(S(=O)(=O)Nc2ccc(S(=O)(=O)O)c3cc(S(=O)(=O)O)cc(S(=O)(=O)O)c23)cc1NS(=O)(=O)c1cccc(NC(=O)Nc2cccc(S(=O)(=O)Nc3cc(S(=O)(=O)Nc4ccc(S(=O)(=O)O)c5cc(S(=O)(=O)O)cc(S(=O)(=O)O)c45)ccc3C)c2)c1 [8,8'-[Ureylenebis[(m-phenylenesulfonylimino) (4-methyl-3,1-phenylenesulfonyl)imino]]di-1,3,5-naphthalenetrisulfonic acid, hexasodium salt] | +1 Wells | +3 Wells | N |  |
| O=C(Nc1cccc(S(=O)(=O)Nc2cccc(S(=O)(=O)Nc3cc(S(=O)(=O)O)cc4cc(S(=O)(=O)O)cc(S(=O)(=O)O)c34)c2)c1)Nc1cccc(S(=O)(=O)Nc2cccc(S(=O)(=O)Nc3cc(S(=O)(=O)O)cc4cc(S(=O)(=O)O)cc(S(=O)(=O)O)c34)c2)c1 [8,8'-[Ureylenebis[[(1,3-phenylenesulfonylimino)-1,3-phenylenesulfonyl]imino]]di-1,3,6-naphthalenetrisulfonic acid, hexasodium salt] | +5 Wells | +4 Wells | +1 Wells |  |
| Cc1ccc(NC(=O)Nc2ccc(C)c(S(=O)(=O)Nc3ccc(C)c(S(=O)(=O)Nc4cc(S(=O)(=O)[O-])cc5cc(S(=O)(=O)[O-])cc(S(=O)(=O)[O-])c45)c3)c2)cc1S(=O)(=O)Nc1ccc(C)c(S(=O)(=O)Nc2cc(S(=O)(=O)[O-])cc3cc(S(=O)(=O)[O-])cc(S(=O)(=O)[O-])c23)c1.[Na+].[Na+].[Na+].[Na+].[Na+].[Na+] [8,8'-[Ureylenebis[[[(6-methyl-3,1-phenylene)sulfonyl]imino]-[[(6-methyl-3,1-phenylene)sulfonyl]imino]]]di-1,3,6-naphthalenetrisulfonic acid, hexasodium salt] | +1 Wells | +3 Wells | N |  |
| Cc1ccc(C(=O)Nc2ccc(S(=O)(=O)O)c3cc(S(=O)(=O)O)cc(S(=O)(=O)O)c23)cc1NC(=O)c1cccc(NC(=O)Nc2cccc(C(=O)Nc3cc(C(=O)Nc4ccc(S(=O)(=O)O)c5cc(S(=O)(=O)O)cc(S(=O)(=O)O)c45)ccc3C)c2)c1 [Suramin, reference compound] | +2 Wells | +4 Wells |  | moderately active |
